Literature values in patent US9029390B2, “Oral composition containing an antiplatelet agent of the thienopyridine family in the form of free base” (CLL Pharma, priority 2008, dated 2015).

Tests used:
[1] = patients who received clopidogrel, study CAPRIE

| solubility in water | frequency of gastro-intestinal bleedings [1] | gastro-intestinal bleedings having required a hospitalization [1] | Compound |
| --- | --- | --- | --- |
| almost null | – | – | COC(=O)[C@H](c1ccccc1Cl)N1CCc2sccc2C1 [clopidogrel free base, clopidogrel] |
| – | 2.0% | 0.7% | COC(=O)[C@H](c1ccccc1Cl)N1CCc2sccc2C1 [clopidogrel] |
